Assay: rectal body temperature of rats after 3 hours in an enclosure supplied with a 22% oxygen / 78% helium, xenon or argon mixture at different temperatures
Assay type: in vivo, rat
Details: comparison of FIGS. 1 and 2
Text: The graph of FIG. 1, which represents the experimental body temperature data Tc collected on rats as a function of the inhalation temperature Ti of a helium-oxygen mixture (curve C1) or of a xenon-oxygen mixture (curve C2), makes it possible to determine the proportions of the gas composition to be complied with in order to obtain a hypothermal gas mixture, depending on the inhalation temperature. In a more detailed manner, curves C1 and C2 correspond to regression lines obtained based on said experimental data Pi, several examples of which have been plotted in FIG. 1.
The experimental data were obtained as follows: The rats were placed for 3 hours in a closed enclosure supplied with a continuous flow of a gas mixture containing 22% oxygen (O2) and 78% helium, xenon or argon (He, Xe or Ar). This gas mixture was administered at different temperatures. The flow of the gas mixture was 10 mL/min and made it possible to maintain the carbon dioxide (CO2) concentration below 0.03% and the humidity at around 60% to 70%. […] At the end of the 3 hours of exposure, the rectal body temperature of the rats was measured for each administration temperature.
The inhalation temperature Ti can be between 16° C. and 27° C., for example.

Structure (SMILES): [Ar] [Argon (Ar), Argon]
- hypothermal properties (slope of curve C3 compared with curve C2): lower hyperthermal properties than xenon
